Test results taken from ChEMBL document CHEMBL1157967, “Triterpenoid saponins from the fruits of Caryocar villosum” (J Nat Prod, 2006).
Calls of active or inactive are those of the source.

Tests used:
Assay type in all cases: functional, organism-based
Escherichia coli = assay: Antibacterial activity against Escherichia coli at 50 ug by agar diffusion method
Staphylococcus aureus = assay: Antibacterial activity against Staphylococcus aureus at 50 ug by agar diffusion method
[1] = system: Mycolicibacterium smegmatis; assay: Antibacterial activity against Mycobacterium smegmatis at 50 ug by agar diffusion method
Pseudomonas aeruginosa = assay: Antibacterial activity against Pseudomonas aeruginosa at 50 ug by agar diffusion method
Enterococcus faecalis = assay: Antibacterial activity against Enterococcus faecalis at 50 ug by agar diffusion method

Measured: Activity

CC1(C)CC[C@]2(C(=O)O[C@@H]3O[C@H](CO)[C@@H](O)[C@H](O)[C@H]3O)CC[C@]3(C)C(=CC[C@@H]4[C@@]5(C)CC[C@H](O[C@@H]6O[C@H](CO)[C@H](O)[C@H](O)[C@H]6O[C@@H]6O[C@H](CO)[C@@H](O)[C@H](O)[C@H]6O)[C@@](C)(CO)[C@@H]5CC[C@]43C)[C@@H]2C1
inactive: Escherichia coli | Staphylococcus aureus | [1] | Pseudomonas aeruginosa | Enterococcus faecalis

CC1(C)CC[C@]2(C(=O)O)CC[C@]3(C)C(=CC[C@@H]4[C@@]5(C)C[C@H](O)[C@H](O[C@@H]6O[C@H](CO)[C@@H](O)[C@H](O[C@@H]7O[C@H](CO)[C@H](O)[C@H](O)[C@H]7O)[C@H]6O)[C@@](C)(CO)[C@@H]5CC[C@]43C)[C@@H]2C1
inactive: Escherichia coli | Staphylococcus aureus | [1] | Pseudomonas aeruginosa | Enterococcus faecalis

CC1(C)CC[C@]2(C(=O)O[C@@H]3O[C@H](CO)[C@@H](O)[C@H](O)[C@H]3O)CC[C@]3(C)C(=CC[C@@H]4[C@@]5(C)C[C@H](O)[C@H](O[C@@H]6O[C@H](C(=O)O)[C@@H](O)[C@H](O[C@@H]7O[C@H](CO)[C@H](O)[C@H](O)[C@H]7O)[C@H]6O)C(C)(C)[C@@H]5CC[C@]43C)[C@@H]2C1
inactive: Escherichia coli | Staphylococcus aureus | [1] | Pseudomonas aeruginosa | Enterococcus faecalis

CC1(C)CC[C@]2(C(=O)O[C@@H]3O[C@H](CO)[C@@H](O)[C@H](O)[C@H]3O)CC[C@]3(C)C(=CC[C@@H]4[C@@]5(C)C[C@H](O)[C@H](O[C@@H]6O[C@H](C(=O)O)[C@@H](O)[C@H](O[C@@H]7O[C@H](CO)[C@H](O[C@@H]8O[C@H](CO)[C@H](O)[C@H](O[C@@H]9O[C@H](CO)[C@H](O)[C@H](O[C@@H]%10OC[C@@H](O)[C@H](O)[C@H]%10O)[C@H]9O)[C@H]8O)[C@H](O)[C@H]7O)[C@H]6O)C(C)(C)[C@@H]5CC[C@]43C)[C@@H]2C1
inactive: Escherichia coli | Staphylococcus aureus | [1] | Pseudomonas aeruginosa | Enterococcus faecalis

CC1(C)CC[C@]2(C(=O)O)CC[C@]3(C)C(=CC[C@@H]4[C@@]5(C)CC[C@H](O[C@@H]6O[C@H](CO)[C@@H](O)[C@H](O[C@@H]7O[C@H](CO)[C@H](O)[C@H](O)[C@H]7O)[C@H]6O)[C@@](C)(CO)[C@@H]5CC[C@]43C)[C@@H]2C1
inactive: Escherichia coli | Staphylococcus aureus | [1] | Pseudomonas aeruginosa | Enterococcus faecalis
